Values quoted from earlier work, collected in patent US20240131116A1, “METHODS AND THREAPEUTIC COMBINATIONS FOR TREATING IDIOPATHIC INTRACRANIAL HYPERTENSION AND CLUSTER HEADACHES” (NBO PHARMA LLC, priority 2021, published 2024).

What was measured:
IIH [1] = settings: for most frequent / most common side effects / visual field grades: topiramate 100 to 150 mg daily, acetazolamide 1000 to 1500 mg/day
IIH [2] = tested on: IIH
[3] = all patients treated
[4] = human, in vivo
[5] = in vivo

## CC(=O)Nc1nnc(S(N)(=O)=O)s1 [acetazolamide, N-(5-sulfamoyl-1,3,4-thiadiazol-2-yl) acetamide]
IIH [1]
  most frequent / most common side effects: fatigue and tingling of the hands and feet
  visual field grades: Significant improvement
IIH [2]; maximum tolerated dose of up to 4 g/day
  vision (perimetric mean deviation, papilledema grade, vision-related quality of life) versus placebo: improved vision
IIH [2]; up to 4 g/day
  adverse events significantly more frequent than in placebo group: paresthesia, dysgeusia, fatigue, decreased carbon dioxide level, nausea, vomiting, diarrhea, and tinnitus
[3]
  patients who discontinued treatment due to adverse events: Up to 20%

## NS(=O)(=O)c1ccc(N2CCCCS2(=O)=O)cc1 [sulthiame, p-(tetrahydro-2H-1,2-thiazin-2-yl)benzenesulfonamide, S,S-dioxide]
[4]
  patients with gastric complaints: about 10%

## CC1(C)O[C@@H]2[C@@H](CO[C@@]3(COS(N)(=O)=O)OC(C)(C)O[C@@H]23)O1 [topiramate, 2,3:4,5-bis-O-(1-methylethylidene)-beta-D-fructopyranose sulfamate]
IIH [1]; during 12 months period
  weight loss, mean: 9.75 kg
IIH [1]
  most frequent / most common side effects: distal paresthesias, concentration difficulties and weight loss
  visual field grades: Significant improvement

## L-alanyl-glycyl-L-cysteinyl-L-lysyl-L-asparagyl-L-phenylalanyl-L-phenylalanyl-L-tryptophyl-L-lysyl-L-threonyl-L-phenylalanyl-L-threonyl-L-seryl-L-cysteine (3->14)-disulfide [somatostatin]
[5]
  biological half-life: 2-3 minutes
